Values joined by “and” are separate entries in the source; they are usually repeats but may differ in a detail not shown here. Identical values can stand only once. Active and inactive are the calls of the source. No rule for the calls is given here.
Each compound was assayed against Perilipin-1 (Homo sapiens) + 1-acylglycerol-3-phosphate O-acyltransferase ABHD5 (Homo sapiens) (UniProt O60240+Q8WTS1) (assay: inhibition of ABHD5 association with perilipin-1 – biochemical, luminescence, dose response, counter-screen for ABHD5-PLIN5 interaction inhibitor project, late-stage follow-up (AID 651766)). Conditions: ABHD5-PLIN1 interaction.

Row | IC50 | SMILES
1 | > 39.8 µM (inactive) | CN(C)CCOC1(Cc2ccc(F)cc2)CCC(C(C)(C)C)CC1 (stereo unspecified)
2 | inactive | COc1cc2c(cc1OC)C(C)N(CCc1ccc(Cl)cc1)CC2 (stereo unspecified)
3 | 3.54 µM | CC1CCN(S(=O)(=O)c2ccc(NC(=O)Cc3cccs3)cc2)CC1
4 | inactive | C=C[C@]1(C)C[C@@H](OC(=O)CSCCN(CC)CC)[C@]2(C)C(C)CC[C@]3(CCC(=O)[C@H]32)[C@@H](C)[C@@H]1O (stereo partly specified)
5 | 4.48 µM | Cc1cc(C)c(NC(=O)C[N+](C)(C)CC(O)COc2cccc3ccccc23)c(C)c1 (stereo unspecified)
6 | 0.744 µM | CC(CCc1ccco1)NC(=O)CCc1nnc2ccc(NCc3ccccc3Cl)nn12 (stereo unspecified)
7 | 1.46 µM | CCCCNC(=O)Nc1ccc2c(c1)N(C)C(=O)c1ccccc1S2
8 | 3.72 µM | CCOC(=O)c1c(NC(=O)/C=C/C(=O)O)sc(C)c1-c1ccc(C(C)(C)C)cc1
9 | 4.51 µM | CC1Sc2ccc(S(=O)(=O)N3CCC(C(=O)NCc4ccc(Cl)cc4)CC3)cc2NC1=O (stereo unspecified)
10 | 6.82 µM | CN(C)CCCN(C(=O)CCc1ccccc1)c1nc2ccc(Br)cc2s1
11 | 2.13 µM | CC1=CC(C)(C)Nc2ccc(OC(=O)C(C)N3C(=O)c4ccccc4C3=O)cc21 (stereo unspecified)
12 | > 39.8 µM (inactive) | CN(C)CCN(Cc1ccco1)c1ccccn1
13 | 8.94 µM | O=c1[nH]c(C2CCN(S(=O)(=O)c3ccc(F)cc3)CC2)nc2c1nnn2Cc1ccc2c(c1)OCCO2
14 | 3.98 µM | CC1CCN(S(=O)(=O)c2ccc(NC(=O)Cc3ccccc3)cc2)CC1
15 | 0.925 µM | CCN(CC)CCOCCOC(=O)C1(c2ccccc2)CCCC1
16 | 2.14 µM and 2.18 µM | NC(=NCCCCCCN=C(N)/N=C(\N)Nc1ccc(Cl)cc1)/N=C(\N)Nc1ccc(Cl)cc1
17 | 3.83 µM | CCCCOC(=O)Nc1cc(C(=O)OC)ccc1C(=O)OC
18 | 0.983 µM | CCN(CC)CCOc1ccc(/C(=C(/Cl)c2ccccc2)c2ccccc2)cc1
19 | 9.85 µM | COc1ccccc1-c1cc(C(=O)NC2CCN(C)CC2)c2ccc(Cl)c(C)c2n1
20 | 2.53 µM | Cc1cc(C)c2nc(NNC(=O)c3ccc(S(=O)(=O)N4CCCC(C)C4)cc3)sc2c1 (stereo unspecified)
21 | inactive | Cc1cc(C)c(NC(=O)CN2CCN3CCCC3C2)c(C)c1 (stereo unspecified)
22 | 1.26 µM | CC(C)c1ccc(N2C=Nc3ccc(C(C)C)cc3C2)cc1
23 | 1.99 µM | O=c1[nH]c(C2CCN(S(=O)(=O)c3ccc(S(=O)(=O)NC4CC4)cc3)CC2)nc2c1nnn2Cc1ccc(F)cc1

Row | IC50 | SMILES
24 | 1.46 µM | COc1cc(OC)cc(C(=O)NC(=S)N(Cc2ccccc2)C(C)C)c1
25 | 0.496 µM | Cc1ccc2nc3cc([N+](=O)[O-])cc([N+](=O)[O-])c3cc2c1
26 | 2.38 µM and 1.6 µM | Cc1ccc2c(CC(=O)N3CCN(S(=O)(=O)c4ccc5c(c4)OCCO5)CC3)coc2c1
27 | > 39.8 µM (inactive) | CN1CCC(=C2c3ccccc3CC(=O)c3sccc32)CC1
28 | 5.16 µM | CC(=O)Nc1ccc(S(=O)(=O)N2c3ccc(F)cc3CCC2C)cc1 (stereo unspecified)
29 | inactive | O=C(C[n+]1cccc(CNC(=O)c2ccc(OC(F)F)cc2)c1)Nc1cccc(C(F)(F)F)c1
30 | inactive | COc1ccc(NC(=S)N(CCCN2CCCC2)Cc2cccn2Cc2ccc(Cl)cc2)cc1Cl
31 | > 39.8 µM (inactive) | CC(=O)Oc1ccc(C23c4ccccc4C2(OC(C)=O)c2cc(OC(C)=O)ccc23)cc1 (stereo unspecified)
32 | 4.16 µM | Cc1nc2c(o1)CCc1ccccc1C2N1CCN(C)CC1 (stereo unspecified)
33 | 5.2 µM | O=C(/C(=C/O)N=Nc1ccc(Cl)cc1)c1ccncc1
34 | 7.16 µM | COc1ccc(C)c2sc(N(CCN(C)C)C(=O)/C=C/c3cccs3)nc12
35 | 1.44 µM | CCN(CC)CCC(C)OC(c1ccccc1)c1ccccc1 (stereo unspecified)
36 | > 39.8 µM (inactive) | COCCN(CCOC)c1nc(N)c2c(N)nc3c(c2c1C#N)CC(=O)N3Cc1ccc(Cl)cc1
37 | > 39.8 µM (inactive) | COc1cc(C)c2sc3ccccc3c(=O)c2c1NCCN(C)C
38 | 5.99 µM | CN(C)CCCN(C(=O)CCc1ccccc1)c1nc2ccc(Cl)cc2s1
39 | 1.2 µM | CCOc1cc(N)c(Cl)cc1C(=O)NCC1CN(Cc2ccc(F)cc2)CCO1 (stereo unspecified)
40 | 1.62 µM | CCOC(=O)c1c(NC(C)=O)sc2c1CCC(C=O)=C2Sc1ccccc1
41 | 3.73 µM | CCCNC(=O)Nc1ccc2c(c1)N(C)C(=O)c1ccccc1S2
42 | 8.99 µM | FC(F)(F)c1cccc(NC(=S)N(CCCN2CCCC2)Cc2cccn2Cc2ccc(Cl)cc2)c1
43 | 7.34 µM | CCN(CC)CCN(CC(=O)Nc1c(C)cc(C)cc1C)C(=O)c1ccccc1
44 | 2.04 µM | CC(=O)Cc1cc(O)c2ccccc2c1OC(=O)c1ccc(Br)cc1
45 | inactive | CCN(CC)CCNC(=O)c1ccc(NC(=O)c2cn(-c3ccccc3)nc2-c2cccs2)cc1
46 | 1.36 µM | CC(=O)Cc1cc(O)c2ccccc2c1OC(=O)c1ccccc1

From PubChem BioAssay AID651766 (The Scripps Research Institute Molecular Screening Center, 2012)
